We go through 6 compounds from patent US9868772B2 (INDIANA UNIVERSITY RESEARCH AND TECHNOLOGY CORPORATION, priority 2012, dated 2018).

What all share (test): cAMP induction, firefly luciferase reporter assay in HEK293 cells co-transfected with receptor
Holding throughout (type): cell-based

The target of one assay is T1, GIP receptor (Homo sapiens, UniProt P48546).
T1 construct: expressed in transfected cells; host or cells: HEK293
T1 sequence (P48546 22-466): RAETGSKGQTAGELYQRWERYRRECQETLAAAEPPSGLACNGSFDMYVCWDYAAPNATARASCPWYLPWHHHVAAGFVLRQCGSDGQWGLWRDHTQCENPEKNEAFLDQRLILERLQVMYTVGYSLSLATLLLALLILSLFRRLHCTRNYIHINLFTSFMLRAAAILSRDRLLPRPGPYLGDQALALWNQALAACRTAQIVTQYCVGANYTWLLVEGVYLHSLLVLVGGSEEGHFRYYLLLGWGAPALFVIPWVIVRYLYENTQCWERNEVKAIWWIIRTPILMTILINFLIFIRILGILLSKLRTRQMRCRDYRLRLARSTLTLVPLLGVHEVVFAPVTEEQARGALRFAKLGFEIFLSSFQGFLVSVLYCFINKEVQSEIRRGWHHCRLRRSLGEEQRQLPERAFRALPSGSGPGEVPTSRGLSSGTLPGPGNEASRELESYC
On the procedure:
(§1) The ability of glucagon analogs to induce cAMP was measured in a firefly luciferase-based reporter assay. […] At the end of the incubation 100 microliters of LucLite luminescence substrate reagent (Perkin-Elmer, Wellesley, Mass.) were added to each well. […] Effective 50% concentrations were calculated by using Origin software (OriginLab, Northampton, Mass.

The next assay addresses T2, GLP-1 receptor (Homo sapiens, UniProt P43220).
T2 construct: expressed in transfected cells; host or cells: HEK293
On the procedure:
as §1

Another assay concerns the target T3, glucagon receptor (Homo sapiens, UniProt P47871).
T3 construct: expressed in transfected cells; host or cells: HEK293
On the procedure:
as §1

[1] abbreviates: Table 2, analogs of SEQ ID NO: 10.
[2] abbreviates: Table 1, analogs of SEQ ID NO: 37.

Numbered stars: 1 amine (or outer) side, 2 acyl side, 3 side chain; on linkers, the order of the positions; unused ones are H or OH. Square brackets hold non-standard residues; d marks the D form. Side chains are listed from the residue outwards. Peptide text beside a SMILES is read from it. * marks the point of attachment. γGlu = O=C(O)[C@H](CCC(=O)[*:2])N[*:1]; Palmitoyl = CCCCCCCCCCCCCCCC(=O)*

T2 sequence (P43220 24-463): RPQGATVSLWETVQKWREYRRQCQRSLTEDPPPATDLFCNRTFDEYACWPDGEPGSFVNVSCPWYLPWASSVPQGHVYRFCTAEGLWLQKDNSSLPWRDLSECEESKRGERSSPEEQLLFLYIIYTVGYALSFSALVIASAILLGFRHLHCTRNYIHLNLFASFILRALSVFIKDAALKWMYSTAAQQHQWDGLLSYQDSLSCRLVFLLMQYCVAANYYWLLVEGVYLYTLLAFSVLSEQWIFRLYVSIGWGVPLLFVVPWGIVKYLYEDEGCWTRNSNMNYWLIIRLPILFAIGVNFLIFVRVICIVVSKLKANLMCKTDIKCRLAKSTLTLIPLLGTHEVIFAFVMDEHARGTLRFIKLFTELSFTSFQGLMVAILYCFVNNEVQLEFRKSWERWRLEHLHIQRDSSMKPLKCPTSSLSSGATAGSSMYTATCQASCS
T3 sequence (P47871 26-477): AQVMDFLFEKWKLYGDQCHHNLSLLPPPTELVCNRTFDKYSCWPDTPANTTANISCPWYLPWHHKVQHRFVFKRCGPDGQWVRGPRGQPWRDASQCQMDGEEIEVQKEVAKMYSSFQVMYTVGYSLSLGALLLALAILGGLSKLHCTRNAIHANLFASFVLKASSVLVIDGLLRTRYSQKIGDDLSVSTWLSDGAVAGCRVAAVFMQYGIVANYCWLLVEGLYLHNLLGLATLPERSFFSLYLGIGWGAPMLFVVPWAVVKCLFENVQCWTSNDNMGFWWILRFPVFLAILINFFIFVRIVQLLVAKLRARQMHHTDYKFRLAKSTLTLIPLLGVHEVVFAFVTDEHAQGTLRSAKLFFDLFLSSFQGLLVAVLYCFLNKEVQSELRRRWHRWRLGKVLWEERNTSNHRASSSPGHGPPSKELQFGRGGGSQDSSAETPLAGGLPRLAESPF

In the case of `CCCCCCCCCCCCCCCC(=O)N[C@@H](CCC(=O)NCCCC[C@H](NC(=O)[C@H](CC(=O)O)NC(=O)[C@H](CO)NC(=O)[C@@H](NC(=O)[C@H](Cc1ccccc1)NC(=O)[C@@H](NC(=O)CNC(=O)[C@H](CCC(=O)O)NC(=O)[C@H](C)NC(=O)[C@@H](Cc1c[nH]cn1)NC(C)=O)[C@@H](C)O)[C@@H](C)O)C(=O)N[C@@H](CO)C(=O)N[C@@H](CCCCN)C(=O)N[C@@H](Cc1ccc(O)cc1)C(=O)N[C@@H](CC(C)C)C(=O)N[C@@H](CC(=O)O)C(=O)N[C@@H](CCC(=O)O)C(=O)N[C@@H](CCCNC(=N)N)C(=O)N[C@@H](C)C(=O)N[C@@H](C)C(=O)N[C@@H](CCC(N)=O)C(=O)N[C@@H](CC(=O)O)C(=O)N[C@@H](Cc1ccccc1)C(=O)N[C@H](C(=O)N[C@@H](CCC(N)=O)C(=O)N[C@@H](Cc1c[nH]c2ccccc12)C(=O)N[C@@H](CC(C)C)C(=O)N[C@@H](CC(C)C)C(=O)N[C@@H](CCC(=O)O)C(=O)N[C@@H](C)C(=O)NCC(=O)N1CCC[C@H]1C(=O)N[C@@H](CO)C(=O)N[C@@H](CO)C(=O)NCC(=O)N[C@@H](C)C(=O)N1CCC[C@H]1C(=O)N1CCC[C@H]1C(=O)N1CCC[C@H]1C(=O)N[C@@H](CO)C(N)=O)C(C)C)C(=O)O` [compound 154] (Ac-[dH]AEGTFTSDK([γGlu-Palmitoyl])SKYLDERAAQDFVQWLLEAGPSSGAPPPS-NH2), the concentration for a half-maximal effect (EC50) at GIP receptor (setting [1]) came out at 24 pM; at GLP-1 receptor (setting [1]) it was 4 pM; on glucagon receptor (setting [1]), 847 pM.
As for `CCCCCCCCCCCCCCCC(=O)N[C@@H](CCC(=O)NCCCC[C@H](NC(=O)[C@H](CC(=O)O)NC(=O)[C@H](CO)NC(=O)[C@@H](NC(=O)[C@H](Cc1ccccc1)NC(=O)[C@@H](NC(=O)CNC(=O)[C@H](CCC(N)=O)NC(=O)[C@H](C)NC(=O)[C@H](Cc1ccc(O)cc1)NC(C)=O)[C@@H](C)O)[C@@H](C)O)C(=O)N[C@@H](CO)C(=O)N[C@@H](CCCCN)C(=O)N[C@@H](Cc1ccc(O)cc1)C(=O)N[C@@H](CC(C)C)C(=O)N[C@@H](CC(=O)O)C(=O)N[C@@H](CCC(=O)O)C(=O)N[C@@H](CCCNC(=N)N)C(=O)N[C@@H](C)C(=O)N[C@@H](C)C(=O)N[C@@H](CCC(N)=O)C(=O)N[C@@H](CC(=O)O)C(=O)N[C@@H](Cc1ccccc1)C(=O)N[C@H](C(=O)N[C@@H](CCC(N)=O)C(=O)N[C@@H](Cc1c[nH]c2ccccc12)C(=O)N[C@@H](CC(C)C)C(=O)N[C@@H](CC(C)C)C(=O)N[C@@H](CCC(=O)O)C(=O)NCC(=O)NCC(=O)N1CCC[C@H]1C(=O)N[C@@H](CO)C(=O)N[C@@H](CO)C(=O)NCC(=O)N[C@@H](C)C(=O)N1CCC[C@H]1C(=O)N1CCC[C@H]1C(=O)N1CCC[C@H]1C(=O)N[C@@H](CO)C(N)=O)C(C)C)C(=O)O` [compound 155] (Ac-YAQGTFTSDK([γGlu-Palmitoyl])SKYLDERAAQDFVQWLLEGGPSSGAPPPS-NH2), the results for the concentration for a half-maximal effect (EC50) on GIP receptor (setting [1]), on GLP-1 receptor (setting [1]) and on glucagon receptor (setting [1]) were 37 pM, 60 pM and 7 pM, respectively.
As for `CCCCCCCCCCCCCCCC(=O)N[C@@H](CCC(=O)NCCCC[C@H](NC(=O)[C@H](CC(=O)O)NC(=O)[C@H](CO)NC(=O)[C@@H](NC(=O)[C@H](Cc1ccccc1)NC(=O)[C@@H](NC(=O)CNC(=O)[C@H](CCC(N)=O)NC(=O)[C@H](C)NC(=O)[C@@H](Cc1c[nH]cn1)NC(C)=O)[C@@H](C)O)[C@@H](C)O)C(=O)N[C@@H](CO)C(=O)N[C@@H](CCCCN)C(=O)N[C@@H](Cc1ccc(O)cc1)C(=O)N[C@@H](CC(C)C)C(=O)N[C@@H](CC(=O)O)C(=O)N[C@@H](CCC(=O)O)C(=O)N[C@@H](CCCNC(=N)N)C(=O)N[C@@H](C)C(=O)N[C@@H](C)C(=O)N[C@@H](CCC(N)=O)C(=O)N[C@@H](CC(=O)O)C(=O)N[C@@H](Cc1ccccc1)C(=O)N[C@H](C(=O)N[C@@H](CCC(N)=O)C(=O)N[C@@H](Cc1c[nH]c2ccccc12)C(=O)N[C@@H](CC(C)C)C(=O)N[C@@H](CC(C)C)C(=O)N[C@@H](CCC(=O)O)C(=O)NCC(=O)NCC(=O)N1CCC[C@H]1C(=O)N[C@@H](CO)C(=O)N[C@@H](CO)C(=O)NCC(=O)N[C@@H](C)C(=O)N1CCC[C@H]1C(=O)N1CCC[C@H]1C(=O)N1CCC[C@H]1C(=O)N[C@@H](CO)C(N)=O)C(C)C)C(=O)O` [compound 13], the EC50 at GIP receptor (setting [2]) came out at 4 pM; on GLP-1 receptor (setting [2]), 4 pM; on glucagon receptor (setting [2]), 2 pM.
For the compound `CCCCCCCCCCCCCCCC(=O)N[C@@H](CCC(=O)NCCCC[C@H](NC(=O)[C@H](CC(=O)O)NC(=O)[C@H](CO)NC(=O)[C@@H](NC(=O)[C@H](Cc1ccccc1)NC(=O)[C@@H](NC(=O)CNC(=O)[C@H](CCC(N)=O)NC(=O)[C@H](C)NC(=O)[C@H](N)Cc1ccc(O)cc1)[C@@H](C)O)[C@@H](C)O)C(=O)N[C@@H](CO)C(=O)N[C@@H](CCCCN)C(=O)N[C@@H](Cc1ccc(O)cc1)C(=O)N[C@@H](CC(C)C)C(=O)N[C@@H](CC(=O)O)C(=O)N[C@@H](CCC(=O)O)C(=O)N[C@@H](CCCNC(=N)N)C(=O)N[C@@H](C)C(=O)N[C@@H](C)C(=O)N[C@@H](CCC(N)=O)C(=O)N[C@@H](CC(=O)O)C(=O)N[C@@H](Cc1ccccc1)C(=O)N[C@H](C(=O)N[C@@H](CCC(N)=O)C(=O)N[C@@H](Cc1c[nH]c2ccccc12)C(=O)N[C@@H](CC(C)C)C(=O)N[C@@H](CC(C)C)C(=O)N[C@@H](CCC(=O)O)C(=O)NCC(=O)NCC(=O)N1CCC[C@H]1C(=O)N[C@@H](CO)C(=O)N[C@@H](CO)C(=O)NCC(=O)N[C@@H](C)C(=O)N1CCC[C@H]1C(=O)N1CCC[C@H]1C(=O)N1CCC[C@H]1C(=O)N[C@@H](CO)C(N)=O)C(C)C)C(=O)O` [compound 15], the results for the EC50 at GIP receptor (setting [2]), at GLP-1 receptor (setting [2]) and on glucagon receptor (setting [2]) were 8 pM, 4 pM and 50 pM, respectively.
On the same counts, the results for `CCCCCCCCCCCCCCCC(=O)N[C@@H](CCC(=O)NCCCC[C@H](NC(=O)[C@H](CC(=O)O)NC(=O)[C@H](CO)NC(=O)[C@@H](NC(=O)[C@H](Cc1ccccc1)NC(=O)[C@@H](NC(=O)CNC(=O)[C@H](CCC(N)=O)NC(=O)CNC(=O)[C@H](N)Cc1c[nH]cn1)[C@@H](C)O)[C@@H](C)O)C(=O)N[C@@H](CO)C(=O)N[C@@H](CCCCN)C(=O)N[C@@H](Cc1ccc(O)cc1)C(=O)N[C@@H](CC(C)C)C(=O)N[C@@H](CC(=O)O)C(=O)N[C@@H](CCC(=O)O)C(=O)N[C@@H](CCCNC(=N)N)C(=O)N[C@@H](C)C(=O)N[C@@H](C)C(=O)N[C@@H](CCC(N)=O)C(=O)N[C@@H](CC(=O)O)C(=O)N[C@@H](Cc1ccccc1)C(=O)N[C@H](C(=O)N[C@@H](CCC(N)=O)C(=O)N[C@@H](Cc1c[nH]c2ccccc12)C(=O)N[C@@H](CC(C)C)C(=O)N[C@@H](CC(C)C)C(=O)N[C@@H](CCC(=O)O)C(=O)NCC(=O)NCC(=O)N1CCC[C@H]1C(=O)N[C@@H](CO)C(=O)N[C@@H](CO)C(=O)NCC(=O)N[C@@H](C)C(=O)N1CCC[C@H]1C(=O)N1CCC[C@H]1C(=O)N1CCC[C@H]1C(=O)N[C@@H](CO)C(N)=O)C(C)C)C(=O)O` [compound 23] (H-[dH]GQGTFTSDK([γGlu-Palmitoyl])SKYLDERAAQDFVQWLLEGGPSSGAPPPS-NH2; N-terminus assumed) are 43 pM, 3 pM and 15 pM.
On the same counts, the results for `CCCCCCCCCCCCCCCC(=O)N[C@@H](CCC(=O)NCCCC[C@H](NC(=O)[C@H](CC(=O)O)NC(=O)[C@H](CO)NC(=O)[C@@H](NC(=O)[C@H](Cc1ccccc1)NC(=O)[C@@H](NC(=O)CNC(=O)[C@H](CCC(N)=O)NC(=O)[C@H](C)NC(=O)[C@H](N)Cc1c[nH]cn1)[C@@H](C)O)[C@@H](C)O)C(=O)N[C@@H](CO)C(=O)N[C@@H](CCCCN)C(=O)N[C@@H](Cc1ccc(O)cc1)C(=O)N[C@@H](CC(C)C)C(=O)N[C@@H](CC(=O)O)C(=O)N[C@@H](CCC(=O)O)C(=O)N[C@@H](CCCNC(=N)N)C(=O)N[C@@H](C)C(=O)N[C@@H](C)C(=O)N[C@@H](CCC(N)=O)C(=O)N[C@@H](CC(=O)O)C(=O)N[C@@H](Cc1ccccc1)C(=O)N[C@H](C(=O)N[C@@H](CCC(N)=O)C(=O)N[C@@H](Cc1c[nH]c2ccccc12)C(=O)N[C@@H](CC(C)C)C(=O)N[C@@H](CC(C)C)C(=O)N[C@@H](CCC(=O)O)C(=O)NCC(=O)NCC(=O)N1CCC[C@H]1C(=O)N[C@@H](CO)C(=O)N[C@@H](CO)C(=O)NCC(=O)N[C@@H](C)C(=O)N1CCC[C@H]1C(=O)N1CCC[C@H]1C(=O)N1CCC[C@H]1C(=O)N[C@@H](CO)C(N)=O)C(C)C)C(=O)O` [compound 16] are 10 pM, 2 pM and 10 pM.

What is called EC50 is the midpoint of the concentration-response curve.
